Test results from paper PMC6281421, “Anticancer activity of 2’-hydroxyflavanone towards lung cancer” (Oncotarget, 2018).

What was measured:
[1] = molecular target: T1, Rlip (RLIP76) purified from H358 and H1618 cells (Homo sapiens, UniProt Q15311); experiment: […]-DOX uptake into Rlip proteoliposomes, rapid filtration; type: biochemical; settings: read-out: % inhibition of DOX transport at 20 μM
T1 construct: gene RALBP1
T1 sequence (Q15311 2-655): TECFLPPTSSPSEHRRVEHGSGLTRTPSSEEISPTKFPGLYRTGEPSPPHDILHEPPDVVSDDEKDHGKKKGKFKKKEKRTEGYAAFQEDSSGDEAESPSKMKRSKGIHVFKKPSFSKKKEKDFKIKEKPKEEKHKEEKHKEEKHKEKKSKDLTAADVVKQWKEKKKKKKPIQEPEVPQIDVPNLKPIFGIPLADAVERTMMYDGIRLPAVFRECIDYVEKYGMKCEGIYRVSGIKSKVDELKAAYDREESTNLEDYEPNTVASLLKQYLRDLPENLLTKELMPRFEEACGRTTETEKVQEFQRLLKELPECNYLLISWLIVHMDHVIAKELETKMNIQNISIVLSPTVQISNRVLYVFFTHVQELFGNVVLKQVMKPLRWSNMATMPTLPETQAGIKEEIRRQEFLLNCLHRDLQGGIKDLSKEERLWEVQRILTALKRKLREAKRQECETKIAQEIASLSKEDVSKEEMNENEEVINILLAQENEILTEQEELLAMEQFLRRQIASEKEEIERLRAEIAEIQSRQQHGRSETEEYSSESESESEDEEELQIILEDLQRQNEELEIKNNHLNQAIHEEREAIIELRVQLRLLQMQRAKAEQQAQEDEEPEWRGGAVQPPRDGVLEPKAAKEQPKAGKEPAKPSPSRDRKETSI

[2] = molecular target: T2, recombinant RLIP (RLIP76) (Homo sapiens, UniProt Q15311); experiment: DNP-SG affinity resin binding and elution with free DNP-SG; settings: 0.2 mM DNP-SG, 10 mM ATP, 10 mM MgCl2; also stimulates the ATPase as allocrite
T2 construct: gene RALBP1; fragments incl; 38 kDa present
T2 sequence (Q15311 1-655): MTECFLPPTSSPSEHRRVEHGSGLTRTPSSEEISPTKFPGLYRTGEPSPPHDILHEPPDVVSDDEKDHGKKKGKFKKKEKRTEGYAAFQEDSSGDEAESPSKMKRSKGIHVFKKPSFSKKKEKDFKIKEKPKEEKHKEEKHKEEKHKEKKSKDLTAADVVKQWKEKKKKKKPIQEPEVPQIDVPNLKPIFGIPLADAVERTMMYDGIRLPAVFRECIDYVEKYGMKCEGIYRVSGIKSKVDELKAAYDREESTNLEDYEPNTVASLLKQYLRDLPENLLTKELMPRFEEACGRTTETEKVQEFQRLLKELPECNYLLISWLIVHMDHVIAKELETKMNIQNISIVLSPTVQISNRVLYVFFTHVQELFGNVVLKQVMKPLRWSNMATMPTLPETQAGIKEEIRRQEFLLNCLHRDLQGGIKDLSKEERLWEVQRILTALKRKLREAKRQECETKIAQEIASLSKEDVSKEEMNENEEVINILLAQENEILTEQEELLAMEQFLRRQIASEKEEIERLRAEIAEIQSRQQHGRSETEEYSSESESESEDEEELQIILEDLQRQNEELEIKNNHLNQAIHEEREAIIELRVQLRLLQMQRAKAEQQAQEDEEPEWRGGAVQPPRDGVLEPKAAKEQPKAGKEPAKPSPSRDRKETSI

SMILES	inhibition at 20 µM [1] [%]	DNP-SG affinity resin binding and elution with free DNP-SG [2]
O=C1CC(c2ccccc2O)Oc2ccccc21 (centres unmarked) [2HF, 2'-hydroxyflavanone]	22	
N[C@@H](CCC(=O)N[C@@H](CSc1ccc([N+](=O)[O-])cc1[N+](=O)[O-])C(=O)NCC(=O)O)C(=O)O [DNP-SG, dinitrophenyl-S-glutathione]		the same major Rlip protein bands were observed in the 2HF eluate as in the DNP-SG eluate
